Structures can show the parent of a compound that is named as a salt.
What was measured:
[1] = tested on: HCT116; conditions: 72 h
Procedure: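 HCT116 control and MTA1-KO (CRISPR) HCT116 cells were seeded in 384-well plates (800 cells/well), treated 16 h later with 237 metabolism-related anticancer drugs at five doses (10 uM, 2 uM, 400 nM, 80 nM, 16 nM) for 72 h, two replicates; viability by CCK8. Values are % inhibition of viability relative to untreated cells, plus fitted IC50.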

[2] = tested on: HCT116; test: viability inhibition vs untreated; higher = more cytotoxic; conditions: 72 h

Row | Structure (SMILES) | IC50 ([1]; genotype: MTA1-KO) | IC50 ([1]; genotype: control) | viability inhibition ([2]; genotype: MTA1-KO, 16 nM) | viability inhibition ([2]; genotype: MTA1-KO, 80 nM) | viability inhibition ([2]; genotype: MTA1-KO, 400 nM) | viability inhibition ([2]; genotype: MTA1-KO, 2000 nM) | viability inhibition ([2]; genotype: MTA1-KO, 10000 nM) | viability inhibition ([2]; genotype: control, 16 nM) | viability inhibition ([2]; genotype: control, 80 nM) | viability inhibition ([2]; genotype: control, 400 nM) | viability inhibition ([2]; genotype: control, 2000 nM) | viability inhibition ([2]; genotype: control, 10000 nM)
1 | CCc1nc(N)nc(N)c1-c1ccc(Cl)cc1 [Pyrimethamine] | 6.54 µM | 4.89 µM | -6.42% | -11.6% | -0.866% | 10.9% | 60.5% | 2.52% | 7.55% | 13.3% | 20.1% | 82.3%
2 | OCc1ccc(-c2ccc(-c3ccc(CO)s3)o2)s1 [RITA] | 1.21 µM | 0.153 µM | 7.71% | 35% | 91.7% | 101% | 99% | -0.895% | 27.2% | 72.5% | 96.3% | 104%
3 | Cc1nc2ccc(CN(C)c3ccc(C(=O)N[C@@H](CCC(=O)O)C(=O)O)s3)cc2c(=O)[nH]1 [Raltitrexed] | 0.0857 µM | > 10 µM | -4.56% | 33.6% | 75.8% | 81.5% | 82.6% | -7.91% | -17.2% | 24.9% | 13% | -5.41%
4 | COc1ccccc1OCC(O)CN1CCN(CC(=O)Nc2c(C)cccc2C)CC1 (stereo unspecified) [Ranolazine dihydrochloride] | > 10 µM | > 10 µM | -7.57% | -13.7% | -7.85% | -21.5% | -19% | -2.04% | 2.97% | -7.95% | -0.947% | 15%
5 | COc1ccccc1OCC(O)CN1CCN(CC(=O)Nc2c(C)cccc2C)CC1 (stereo unspecified) [Ranolazine] | 6.87 µM | > 10 µM | -0.081% | 5.69% | 8.98% | 2.99% | 74.3% | -8.25% | -12.6% | -15.3% | -15% | 8.96%
6 | CO[C@H]1C[C@@H]2CC[C@@H](C)[C@@](O)(O2)C(=O)C(=O)N2CCCC[C@H]2C(=O)O[C@H]([C@H](C)C[C@@H]2CC[C@@H](O)[C@H](OC)C2)CC(=O)[C@H](C)/C=C(\C)[C@@H](O)[C@@H](OC)C(=O)[C@H](C)C[C@H](C)/C=C/C=C/C=C/1C [Rapamycin] | > 10 µM | > 10 µM | 4.81% | 4.98% | 3.36% | 17.6% | 18.4% | -3% | -2.75% | 2.91% | 0.723% | 24.6%
7 | Cc1nc(Nc2ccc(F)cc2)nc(N2CCc3ccccc3C2C)c1C (stereo unspecified) [Revaprazan hydrochloride] | > 10 µM | > 10 µM | -4.67% | -1.6% | -2.29% | -13.6% | -33.6% | 20.9% | 17.7% | 11% | 7.17% | -10.8%
8 | C[C@]12CC[C@H](O)C[C@H]1CC[C@@H]1[C@@H]2CC[C@]2(C)[C@@](O)(c3ccoc3)CC[C@]12O [Rostafuroxin] | > 10 µM | > 10 µM | 11.8% | 13.5% | 10% | 14.5% | 30.6% | -0.895% | 11.7% | 13.9% | 5.09% | 13%
9 | CC(C)c1nc(N(C)S(C)(=O)=O)nc(-c2ccc(F)cc2)c1/C=C/[C@@H](O)C[C@@H](O)CC(=O)O [Rosuvastatin] | > 10 µM | > 10 µM | -4.22% | -8.46% | -10.3% | -11.2% | -10.9% | -1.14% | -8.14% | 4.9% | -10.3% | 31.2%
10 | C=C(C)[C@H]1Cc2c(ccc3c2O[C@@H]2COc4cc(OC)c(OC)cc4[C@@H]2C3=O)O1 [Rotenone] | 0.0743 µM | < 0.016 µM | 16.6% | 34.1% | 35.3% | 43.4% | 51.6% | 63.1% | 57.1% | 46.9% | 45.4% | 65.4%
11 | O=c1cc(N2CCOCC2)oc2c(-c3ccc4c(c3)OCCO4)csc12 [SF2523] | 8.68 µM | 9.37 µM | 7.25% | -7.41% | -9.52% | -14.8% | 68.1% | -25.2% | -16.4% | -24% | -23.1% | 55.5%
12 | C/C(=N\NC(=O)c1cccc(S(=O)(=O)N2CCOCC2)c1)c1cc(Cl)ccc1O [SP2509] | 0.69 µM | 0.493 µM | 13% | 7.45% | 18% | 98.5% | 99.6% | -5.87% | -2.4% | 14.8% | 104% | 103%
13 | CC(C)(C)c1ccc(S(=O)(=O)NCc2ccc(C(=O)Nc3cccnc3)cc2)cc1 [STF31] | > 10 µM | 1.33 µM | 0.724% | -19.9% | -8.95% | -5.53% | 6.98% | 18.1% | 6.81% | 42.8% | 43.4% | 74.1%
14 | c1ccc2c(CCNc3ccc(Nc4ccncc4)cc3)c[nH]c2c1 [Serdemetan] | 1.66 µM | 2.48 µM | 10.9% | 7.55% | 13.6% | 65.6% | 107% | 10.5% | 10.9% | 5.2% | 5.93% | 85.1%
15 | Oc1ccc2c(c1)OCO2 [Sesamol] | > 10 µM | > 10 µM | -15.3% | -20.6% | -20.7% | -23.5% | -9.02% | 12.7% | -1.76% | -11.9% | -12.6% | -2.94%
16 | O=C(O)c1ccc2c(c1)nc(Nc1cccc(Cl)c1)c1ccncc12 [Silmitasertib] | > 10 µM | > 10 µM | -17.2% | -23.7% | -18.2% | -24.2% | -22% | 7.6% | -9.55% | -4.38% | -8.94% | -1.95%
17 | O=C([O-])C(Cl)Cl.[Na+] [Sodium Dichloroacetate] | > 10 µM | > 10 µM | -5.96% | -6.01% | -16.4% | -11.2% | 11.1% | -15.2% | -8.93% | -10.2% | -22.3% | -2.12%
18 | Cc1c(CN2CCN(c3cccc(C(F)(F)F)c3)CC2)cc(-c2ccccc2)n1NC(=O)c1ccncc1 [Sudoterb free base] | > 10 µM | > 10 µM | -13.3% | -15.8% | -16% | -17% | 44.1% | -4.96% | 1.24% | -11% | -15% | -4.96%

From the supplement of paper PMC10477900
